According to patent US20190314311A1, “PHARMACEUTICAL COMPOSITION” (JAPAN SCIENCE AND TECHNOLOGY AGENCY, priority 2016, published 2019):

Key:
Type in all cases: biochemical
Thio-Q62 protein [1] = assay: protein aggregation turbidity assay; conditions: 10 μM thio-Q62, PBS, 37° C.; arginine 100, 200 or 400 mM; proline 400 mM; Thio-Q62 alone = 100%
Protocol: In the subsequent experiments, the protein aggregation turbidity assay was performed by the method described in Non-Patent Document 6. Specifically, it was performed as follows.
(§1) A solution in which abnormally expanded proteins were dissolved in physiological saline phosphate (PBS) was used as a measurement sample. The solution was incubated at 37° C., and turbidity at 405 nm was measured every 24 hours using a microplate reader “Spectramax Plus plate reader” (Molecular Devices Inc.).
As an abnormally expanded PolyQ protein, a Thioredoxin-Q62 (Thio-Q62) fusion protein consisting of Thioredoxin and a PolyQ stretch with 62 glutamines was used.
As a control, Thio-Q62 protein alone was incubated in the same manner, and the turbidity was measured every 24 hours.
As controls, a solution containing Thio-Q62 protein alone, and a solution containing Thio-Q62 protein and 400 mM proline were incubated in the same manner, respectively, and turbidity was measured after 5 days. […] The relative turbidity (%) of each solution was measured. The turbidity of the solution containing Thio-Q62 protein alone was set to 100%. In the figure, values represent means±SEM (n=3). “*” represents p<0.05, “***” represents p<0.001, “n.s.” represents not significant.

Thio-Q62 protein [2] = assay: seed-induced polyQ aggregation reaction (turbidity); conditions: 10 μM Thio-Q62 + seeds, 400 mM arginine or proline, 37° C., 7 days
Protocol: as §1

[3] = test system: abnormally expanded PolyQ protein; assay: in vitro screening assay of abnormally expanded PolyQ protein aggregation by the turbidity method; conditions: screening of PolyQ aggregation inhibiting compounds
Excerpt: The present inventors established an in vitro screening assay system capable of conveniently evaluating the aggregation of abnormally expanded PolyQ protein by the turbidity method (U.S. Pat. No. 6,632,616).

Question: What does the source list for `O=C(O)[C@@H]1CCCN1` [proline, reference compound]?
Answer: relative turbidity after 5 days (Thio-Q62 protein [1]): did not exert any anti-aggregation effect; seed-induced increase in turbidity (Thio-Q62 protein [2]): the effects as observed with arginine was not obtained; PolyQ aggregation inhibitory activity [3]: no PolyQ aggregation-inhibitory effect
